Key:
Pythium ultimum = test: Amended agar assay; type: cell-based; conditions: Globisporangium ultimum; potato dextrose agar amended with compound at 2 ppm, 18° C., 2 to 7 days; read-out: % control Pythium ultimum (% reduction in colony growth compared to the control plate)
Method: Amended Agar Assay Testing was carried out on potato dextrose agar (PDA) amended with each compound at a test concentration of 2 ppm. Amended agar was poured into three replicate 9 cm petri dishes. Each replicate dish was inoculated in the centre with a 5 mm agar plug taken from the leading edge of a culture aged between 2 and 7 days old; the age of the culture was dependent on the growth rate of the pathogen being tested. The test pathogen was Pythium ultimum. Plates were incubated at 18° C. and the diameter of each colony measured before growth on the fastest growing plate reached the plate edge. This varied between 2 and 7 days depending on the growth rate of test pathogens. The % reduction in colony growth compared to the control plate was calculated. The results are provided in Table 1, in which D represents no control detected at this concentration; C represents up to 50% control; B from 50 to 99% control; and A represents a control of greater than 99%, i.e. no detectable colony growth.

Phytophthora cactorum = test: 96 well plate test; type: cell-based; conditions: Phytophthora cactorum; agar amended to 2, 0.2, 0.02 and 0.002 ppm, 18° C., assessed after 2 to 3 days
Method: Compounds were screened in 96 well plates with 10 compounds per plate. Each compound was screened using agar amended to 2, 0.2, 0.02 and 0.002 ppm, with proline at 50 and 10 ppm and 0.2% DMSO used as controls. Each test concentration and standard was replicated twice on a plate. Compounds were screened against Phytophthora cactorum. The agar used in the test is a 1% potato dextrose agar. 1000 spores/mL agar were added to the appropriate agar.
A ×10 stock solution in 2% DMSO was produced for each dose i.e. 20, 2, 0.2 and 0.02 ppm, and 10 μl of this added to the appropriate wells on the plate. An equivalent amount of 2% DMSO and proline stock at 500 and 100 ppm were added for the controls. To each well 90 μl of the appropriate agar spore suspension was added to give the required final well concentrations. Plates were incubated at room temperature (18° C.) and assessed after 2 to 3 days. The amount of pathogen growth in each well was compared to the DMSO controls and an EC50 concentration was calculated. The results are provided in Table 1 in which G represents no control detected at 2 ppm, F represents an EC50 of ≥2 ppm, and E represents an EC50 of less than 2 ppm.

Compound | inhibition of growth at 2 ppm (Pythium ultimum) [%] | EC50 (Phytophthora cactorum) [µg/mL]
Cn1nnnc1-n1c(OCc2cccc(NC(=O)C3CCCC3)n2)nc2c(Cl)cccc21 [Compound 10] | > 99 | < 2
CC(C)CC(=O)Nc1cccc(COc2nc3c(Br)cccc3n2-c2nnnn2C)n1 [Compound 41] | > 99 | < 2
COc1cc(F)cc2c1nc(OCc1cccc(NC(=O)C3CC3)n1)n2-c1nnnn1C [Compound 6] | 50 to 99 | ≥ 2
Cn1nnnc1-n1c(OCc2cccc(NC(=O)COc3ccccc3)n2)nc2c(Cl)cccc21 [Compound 2] | > 99 | < 2
Cn1nnnc1-n1c(OCc2cccc(NC(=O)COc3ccccc3)n2)nc2c(Br)cccc21 [Compound 36] | > 99 | < 2
CCCCC(=O)Nc1cccc(COc2nc3c(Cl)cccc3n2-c2nnnn2C)n1 [Compound 25] | > 99 | < 2
Cn1nnnc1-n1c(OCc2cccc(NC(=O)CC(C)(C)C)n2)nc2c(Cl)cccc21 [Compound 33] | > 99 | < 2

Reference: patent US20210206744A1, “BENZIMIDAZOLE COMPOUNDS AS AGRICULTURAL CHEMICALS” (REDAG CROP PROTECTION LTD, priority 2017, published 2021)
